The values below come from PubChem BioAssay (NCI).

Some test systems named below: UACC-62 melanoma; HOP-92 NSCLC; KM12 colon; UACC-257 melanoma; A549 NSCLC; M14 melanoma; SK-MEL-28 melanoma; MALME-3M melanoma; PC-3 prostate; NCI-H522 lung.
Assay in all cases: growth of human tumour cells (NCI), 48 h

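All cell lines were grown in 96-well plates and treated with compound for 48 hours. GI50 marks 50% less growth. TGI marks complete inhibition of growth.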

With `COc1ccc(/C=C/C(=O)c2ccc(Nc3nc(Nc4ccc(F)cc4)nc(Nc4ccc(F)cc4)n3)cc2)cc1`, the GI50 in the assay with UACC-62 melanoma is 29.9 µM; in the assay with HOP-92 NSCLC it was 8.8 µM; in the assay with KM12 colon, 7.62 µM; with UACC-257 melanoma, 19 µM; with A549 NSCLC, 10.1 µM; in the assay with M14 melanoma it was 12.3 µM. For the same compound, the GI50 in the assay on SK-MEL-28 melanoma was 56.8 µM; in the assay on MALME-3M melanoma, 8.94 µM; in the assay on PC-3 prostate it was 5.06 µM; with NCI-H522 lung, 8.89 µM. In addition, the TGI is > 100 µM in the assay on UACC-62 melanoma; 31.4 µM in the assay with HOP-92 NSCLC; 29.3 µM in the assay with KM12 colon; 76.4 µM in the assay on UACC-257 melanoma; 34 µM with A549 NSCLC; 36.7 µM with M14 melanoma. Besides, the TGI in the assay on SK-MEL-28 melanoma was > 100 µM; in the assay on MALME-3M melanoma, 46.6 µM; in the assay on PC-3 prostate, 21.4 µM; with NCI-H522 lung, 24.9 µM.
Turning to `Cc1cc2nc(-c3ccc(O)c(O)c3)n(Cc3ccc(O)c(O)c3)c2cc1C`, the GI50 in the assay on UACC-62 melanoma was 19 µM; in the assay with HOP-92 NSCLC it was 9.7 µM; in the assay on KM12 colon, 23.5 µM; in the assay with UACC-257 melanoma, 36 µM; in the assay on A549 NSCLC it was 40.2 µM; with M14 melanoma, 39.2 µM. Further, the GI50 in the assay on SK-MEL-28 melanoma was 87.6 µM; in the assay with MALME-3M melanoma, 27.2 µM; in the assay with PC-3 prostate, 22.5 µM; in the assay with NCI-H522 lung, 6.71 µM. Besides, the TGI in the assay on UACC-62 melanoma was 41.1 µM; in the assay on HOP-92 NSCLC, 55 µM; in the assay on KM12 colon, > 100 µM; with UACC-257 melanoma it was 95.9 µM; with A549 NSCLC, > 100 µM; in the assay on M14 melanoma, > 100 µM. For the same compound, the TGI in the assay with SK-MEL-28 melanoma was > 100 µM; with MALME-3M melanoma it was > 100 µM; with PC-3 prostate, > 100 µM; in the assay on NCI-H522 lung, 23.9 µM.
As to `CN1CCN(c2nc3cc(F)ccc3n3cccc23)CC1`, the TGI with UACC-62 melanoma was 80.4 µM; in the assay on HOP-92 NSCLC, > 100 µM; in the assay on KM12 colon, > 100 µM; in the assay on UACC-257 melanoma, 79 µM; in the assay with A549 NSCLC, > 100 µM; in the assay on M14 melanoma it was 34.5 µM. Also, the TGI in the assay with SK-MEL-28 melanoma was 51.8 µM; in the assay on MALME-3M melanoma, 62.4 µM; in the assay on PC-3 prostate, > 100 µM; in the assay on NCI-H522 lung it was > 100 µM.
Take `CCSc1nc(N)c2cnn(CC)c2n1`: the GI50 in the assay with UACC-62 melanoma is 4.8 µM; in the assay on KM12 colon it was 3.15 µM; with UACC-257 melanoma, 10.2 µM; in the assay with A549 NSCLC, 3.83 µM; in the assay with M14 melanoma, 15.1 µM; with SK-MEL-28 melanoma, 20.4 µM. In addition, the GI50 was 18 µM in the assay on MALME-3M melanoma, 4.34 µM in the assay with PC-3 prostate and > 100 µM with NCI-H522 lung. For the same compound, the TGI was 24.5 µM with UACC-62 melanoma; > 100 µM in the assay with KM12 colon; 36.5 µM in the assay on UACC-257 melanoma; 20.9 µM in the assay on A549 NSCLC; 30.5 µM in the assay on M14 melanoma; > 100 µM in the assay with SK-MEL-28 melanoma. The TGI with MALME-3M melanoma is 59 µM; with PC-3 prostate, 14.8 µM; in the assay with NCI-H522 lung it was > 100 µM.
As to `CC1=C(SCCC(=O)OC(C[Se]C2=C(C)C(=O)c3ccccc3C2=O)C(=O)NC(C)(C)C)C(=O)c2ccccc2C1=O` (stereo not drawn), the GI50 in the assay with UACC-62 melanoma is 1.48 µM; in the assay with HOP-92 NSCLC, 0.793 µM; in the assay on KM12 colon, 0.86 µM; with UACC-257 melanoma it was 1.76 µM; with A549 NSCLC, 1.11 µM; in the assay with M14 melanoma, 1.32 µM. Further, the GI50 was 1.78 µM in the assay on SK-MEL-28 melanoma, 2.01 µM in the assay on MALME-3M melanoma, 0.457 µM in the assay on PC-3 prostate and 1.57 µM in the assay with NCI-H522 lung. The TGI turned out to be 2.83 µM in the assay on UACC-62 melanoma; 2.13 µM in the assay on HOP-92 NSCLC; 2.18 µM in the assay with KM12 colon; 3.2 µM in the assay with UACC-257 melanoma; 4.59 µM in the assay with A549 NSCLC; 2.67 µM in the assay on M14 melanoma. Moreover, the TGI with SK-MEL-28 melanoma was determined as 3.16 µM; with MALME-3M melanoma, 3.89 µM; in the assay with PC-3 prostate, 1.69 µM; with NCI-H522 lung, 3.4 µM.
On to `CN(C)Cc1cc(C(C)(C)C)cc(CN(C)C)c1O`, for which the TGI with UACC-62 melanoma, with HOP-92 NSCLC, in the assay with KM12 colon, in the assay with UACC-257 melanoma, in the assay on A549 NSCLC and in the assay with M14 melanoma was > 100 µM in each case. Further, the TGI in the assay with SK-MEL-28 melanoma, with MALME-3M melanoma, in the assay with PC-3 prostate and with NCI-H522 lung was > 100 µM each time.
Take `Cc1nc2sc(C(=O)Nc3ccccc3)c(N)c2cc1C(=O)c1ccccc1`: the GI50 in the assay on UACC-62 melanoma is 2.12 µM; in the assay with HOP-92 NSCLC, 9.47 µM; in the assay on KM12 colon, 2.04 µM; in the assay on UACC-257 melanoma, 31.5 µM; in the assay on A549 NSCLC, 0.853 µM; in the assay on M14 melanoma, 1.56 µM. For the same compound, the GI50 in the assay with SK-MEL-28 melanoma is 8.82 µM; in the assay on MALME-3M melanoma it was 5.5 µM; with PC-3 prostate, 1.66 µM; in the assay on NCI-H522 lung it was 1.54 µM. For the same compound, the TGI in the assay on UACC-62 melanoma, in the assay with HOP-92 NSCLC, with KM12 colon, in the assay on UACC-257 melanoma, in the assay on A549 NSCLC and in the assay on M14 melanoma was > 50 µM in each case. Further, the TGI in the assay on SK-MEL-28 melanoma is > 50 µM; with MALME-3M melanoma, > 50 µM; in the assay with PC-3 prostate, > 50 µM; in the assay with NCI-H522 lung it was 12.7 µM.
As to `CCCC(=O)OC(OC(=O)CCC)c1ccc([N+](=O)[O-])o1`, the TGI in the assay on UACC-62 melanoma is 49.1 µM; in the assay with HOP-92 NSCLC it was 56.3 µM; with KM12 colon it was > 100 µM; in the assay on UACC-257 melanoma, 51.9 µM; with A549 NSCLC, > 100 µM; with M14 melanoma, 47.8 µM. The TGI was 46.9 µM in the assay with SK-MEL-28 melanoma, 40.3 µM in the assay on MALME-3M melanoma, > 100 µM in the assay on PC-3 prostate and 28.9 µM in the assay on NCI-H522 lung.
For `O=C1C(OC(=O)c2ccccc2)=C(c2ccc(O)cc2)C(=O)C(OC(=O)c2ccccc2)=C1c1ccc(O)cc1`, the TGI in the assay with UACC-62 melanoma, with HOP-92 NSCLC, in the assay on KM12 colon, in the assay on UACC-257 melanoma, in the assay on A549 NSCLC and with M14 melanoma was > 100 µM throughout. Further, the TGI in the assay with SK-MEL-28 melanoma, with MALME-3M melanoma, in the assay with PC-3 prostate and in the assay on NCI-H522 lung was > 100 µM throughout.
